Laboratory results reported in US20140039031A1, “PHARMACEUTICAL FORMULATIONS OF ACETYL-11-KETO-B-BOSWELLIC ACID, DIINDOLYLMETHANE, AND CURCUMIN FOR PHARMACEUTICAL APPLICATIONS” (Dispersol Technologies. LLC, priority 2011, published 2014).

Legend:
[1] = Solubility enhancement of AKBA by polymer carriers (thermal binders) (UV-Visible); type: physicochemical; details: pH 6.8 phosphate buffer; 20 mg AKBA in 10 mL; shaken at least 72 hours at 37° C.; 0.45 micron filter
Protocol: Evaluation of Solubility Enhancement Capability of Polymer Carriers (Thermal Binders) for Solubilizing AKBA.
(§1) 20 mg of AKBA was placed in a 10 mL cuvette, followed by the desired amount of polymer carriers to be studied to give the desired ratio of materials. A pH 6.8 phosphate buffer was added as needed to bring the volume up to 10 mL. After all material was added to the cuvette, the cuvette was sealed, sonicated for 2 hours on two separate occasions and then shaken for at least 72 hours at 37° C. The resulting material was filtered through a 0.45 micron filter and analyzed by UV-Visible spectroscopy to determine the AKBA content.

[2] = Solubility enhancement of AKBA by surfactants (UV-Visible); type: physicochemical; details: pH 6.8 phosphate buffer; 100 mg AKBA in 10 mL; shaken at least 72 hours at 37° C.; 0.20 micron filter
Protocol: Evaluation of Solubility Enhancement Capability of Surfactants for Solubilizing AKBA.
as §1, with “100” for “20”, “surfactant” for “polymer carriers”, “materials. Powder surfactants were measured directly into the cuvette in the amounts of 10 mg, 25 mg and 50 mg. Liquid surfactants were added by making a solution of 1.25 gm of surfactant in 250 ml of buffer, and then adding 2 ml, 5 ml, or 10 ml of the buffer solution to add 10 mg, 25 mg and 50 mg of the surfactant.” for “materials.”, “0.20” for “0.45”

[3] = Dissolution testing under non-sink conditions (USP XXIX method A enteric dissolution test); type: physicochemical; details: pH 6.8 buffer, read from FIG. 6
Protocol: Dissolution tests were performed with a dissolution apparatus (VK 7000 Dissolution Tester with a VK 8000 Autosampler). The testing was carried out according to a published method (USP XXIX method A enteric dissolution test); non-sink conditions were maintained throughout the testing using 1 L of final neutral media. The solution of 0.1N HCl (pH of 1.2) with a formulation present was stirred at 50 rpm for 2 hours and then the solution was converted to 0.2M Phosphate Buffer (pH of 6.8) and stirring continued up to 12 hours. At times of 60, 120, 125, 135, 150, 165, 180, 210, 240, 300, 360, 480, and 720 minutes, three×5 mL samples were removed and analyzed for soluble AKBA.

[4] = Solubility enhancement of AKBA by combination of polymer carriers and surfactants (UV-Visible); type: physicochemical; details: pH 6.8 phosphate buffer; 20 mg AKBA in 10 mL; shaken at least 72 hours at 37° C.; 0.45 micron filter
Protocol: Evaluation of Solubility Enhancement Capability of the Combination of Polymer Carriers (Thermal Binders) and Surfactants for Solubilizing AKBA.
20 mg of AKBA was placed in a 10 mL cuvette, followed by the desired amount of polymer carriers and/or surfactants to be studied to give the desired ratio of materials. A pH 6.8 phosphate buffer was added as needed to bring the volume up to 10 mL. […] The resulting material was filtered through a 0.45 micron filter and analyzed by UV-Visible spectroscopy to determine the AKBA content.

[5] = Bioavailability (pharmacokinetic) study of AKBA formulations, oral gavage; type: in vivo, Sprague-Dawley rats; details: rat, dose equivalent to 50 mg/kg AKBA, * statistically significant
Protocol: A study was performed to evaluate the pharmacokinetic parameters of AKBA compositions. For the study, adult male Sprague-Dawley rats (275-300 grams, 63-67 days) were caged individually and maintained on a normal rodent chow diet with free access to water. Rats were randomly divided into groups of 4 rats with each group receiving one formulation. Prior to dosing, each formulation was reconstituted in deionised water. The formulations were administered as a dose equivalent to 50 mg/kg AKBA. Each formulation was delivered by 1 mL oral gavage via a pharyngeal tube such that each group of 4 rats received a different formulation. Each formulation was administered to dose AKBA at a concentration of 15 mg/l mL to prevent spontaneous release through the pyloric sphincter (volumetric dose below 4 mL/kg body weight).
The administered formulations were: […]
The catheters of the rats were flushed daily with 300 μL of 50 U/mL heparinized normal saline. Blood samples of approximately 300 μL were collected from the jugular vein catheter at 0, 0.5, 1, 1.5, 2, 2.5, 3, 3.5, 4, 4.5, 5, 5.5, 6 and 8 hours after dosing using a 1 mL syringe and attached […] needle. Blood was slowly extracted into the needle through the catheter. The blood samples were placed into preheparinized 1.5 mL microcentrifuge tubes. Withdrawn blood was replaced with equal volumes of heparinized saline by injecting through the jugular vein catheter. The bioavailability of the API was then determined by monitoring the API levels in the blood over time.

Compound: CC(=O)O[C@@H]1CC[C@@]2(C)[C@@H](CC[C@]3(C)[C@@H]2C(=O)C=C2[C@@H]4[C@@H](C)[C@H](C)CC[C@]4(C)CC[C@]23C)[C@@]1(C)C(=O)O [AKBA, acetyl-11-keto-β-boswellic acid]
- AKBA solubility, mcg/mL Buffer (Material - Polymer Carriers) [1]: 7.27 µg/mL
- AKBA solubility, mcg/mL Buffer (Material - Surfactants) [2]: 0.01 µg/mL
- peak solubility [3]: about 2 μg/ml
- AKBA solubility, mcg/mL Buffer (Material - Combination of Surfactants and Polymer Carriers) [4]: 8.46 µg/mL
- Average of AUC [5]: 0.71* ± 0.24 μg-hr/mL
- Average of Cmax [5]: 0.35* ± 0.12 μg/mL
- Average of Tmax [5]: 4.75* ± 1.55 hours
- Average of t1/2 [5]: 2.30 ± 1.43 h
